Measurements from patent US9315545B2, “Hepcidin mimetic peptides and uses thereof” (MERGANSER BIOTECH, INC., priority 2014, dated 2016).
Converted amounts (≈) assume the structure as drawn. “Also recorded” adds a separate entry of the source.

Columns and labels:
[1] = Stability in sodium acetate buffer pH 6 at two temperatures, reversed-phase HPLC; type: physicochemical; settings: for % Purity of the Compound, 6 Hours 25° C. / % Purity of the Compound, 6 Hours 40° C.: sodium acetate buffer pH 6, 6 hours; for Change in Main Peak % Area After 18 H Incubation, 25° C. / Change in Main Peak % Area After 18 H Incubation, 40° C.: sodium acetate buffer pH 6, 18 h; for % Purity of the Compound, 18 Hours 25° C. / % Purity of the Compound, 18 Hours 40° C.: sodium acetate buffer pH 6, 18 hours; for % Purity of the Compound, Initial: sodium acetate buffer pH 6, initial
Procedure: Three other compounds were also tested, Compound 2, Compound 3, and Compound 4. Compounds 2, 3, and 4 are modifications of Compound 1 at the sidechain of Cysteine 7. Compound 2 has a disulfide bond attached to Cysteine 7, Compound 3 has thioester bond attached to Cysteine 7, and Compound 4 has an ethyl group attached to the sidechain sulfur of Cysteine 7. The peptides were incubated in sodium acetate buffer pH 6 at two temperature conditions and then analyzed via reversed-phase HPLC. The chromatography performed was with an Ascentis Phenyl 2.7 micron column (4.6×150 mm). The binary gradient (1 ml/min) was 36% to 56% B in 40 minutes followed by an increase to 65% B in 5 minutes where A=0.1% trifluoroacetic acid in water and B=0.1% trifluoroacetic acid in acetonitrile.

[2] = In vitro stability of compounds in rat plasma (37° C.); type: in vitro ADME; settings: for half-life: rat, plasma
Procedure: The in vitro stability of Compounds 1-4 in rat plasma at 37° C. was examined to give an indication of stability in a whole animal model (Table 6).

[3] = Compound blood levels after subcutaneous administration in the rat (LC/MS); type: in vivo; settings: in vivo, sc, 7.5 mg/kg
Procedure: (§1) Compounds 1-4 were tested in rats to determine compound pharmacokinetics and hepcidin mimetic activity in vivo as measured by serum iron reduction. The effectiveness of the compounds for serum iron reduction should correlate with the treatment of iron metabolism disorders. Individual compounds, in this example and the following examples were generally formulated in DSPE-PEG(2000) (SUNBRIGHT® DSPE-020CN, NOF America Corporation) (30 mg/mL) and dosed subcutaneously at a compound dose of 7.5 mg/kg.
(§2) The compound was prepared according to the following typical preparation. The dosing solution was prepared (7.5 mg compound/mL in clear solution) by weighing the compound into vial and an aliquot of ethanol is added into the vial and mixture vortexed. DSPE-020CN was added and the solution was vortexed, and, if necessary, the mixture was heated at 37° C. for 10-15 minutes to fully dissolve the DSPE-020CN. The ethanol was evaporated with nitrogen gas stream for 1-3 hours. Sterile water was then added and the mixture was vortexed or, if necessary, sonicated to give a clear solution.
After subcutaneous injection compound quantities in blood were measured over the subsequent 24 hours via LC/MS.

physchem = type: physicochemical
Procedure: Different solvent compositions with different properties that are commonly used as a basis for pharmaceutical compositions were added to known quantities of the indicated compound and mixed. If a clear solution was not obtained, additional solvent was added and the solution mixed. […] For example “50-100” would indicate that the compound was not soluble at 100 mg/mL but upon additional solvent to have a final concentration of 50 mg/mL, the compound was soluble.

[4] = type: physicochemical
Procedure: An additional critical aspect in drug delivery is retention of solubility with time (physical stability), especially under refrigerated conditions. […] Unexpectedly, clear differences in physical stability were observed between Compound 5 and other compounds with only minor changes in sequence (e.g. Compounds 7 and 8). The combination of unexpected solubility of greater than 100 mg/mL in mildly acidic conditions and lack of significant changes in solution character after refrigeration, are unexpected and advantageous for a pharmaceutical product.

serum iron = test: Serum iron reduction after subcutaneous administration in the rat (hepcidin mimetic activity); type: in vivo; settings: 7.5 mg/kg
Procedure: as §1, §2
Serum iron was measured during the 24 h following subcutaneous administration in a rat of Compounds 1-4 and is summarized in FIG. 1. […] The observed effects on serum iron were unexpectedly similar in Compounds 1-3 despite the differences at Cysteine 7 and the differences in blood levels of the compounds (Table 7).

[5] = Solubility (mg/mL) at Ambient Temperature, 30% PEG 400
[6] = Solubility (mg/mL) at Ambient Temperature, 50% EtOH/water
[7] = Solubility (mg/mL) at Ambient Temperature, Water
[8] = pH 2.3, Solubility (mg/mL) at Ambient Temperature, 10% Tween 80 pH 2.3-2.8
[9] = pH 2.7, Solubility (mg/mL) at Ambient Temperature, 50% propylene glycol, pH 2.7
[10] = pH 4.5, Solubility (mg/mL) at Ambient Temperature, 10% Tween 80 pH 4.5-5.0
[11] = pH 5.5, Solubility (mg/mL) at Ambient Temperature, 10% Tween 80 pH 5.5-6.0

Row | SMILES | % Purity of the Compound, 6 Hours 25° C. [1] | % Purity of the Compound, 6 Hours 40° C. [1] | Change in Main Peak % Area After 18 H Incubation, 25° C. [1] | Change in Main Peak % Area After 18 H Incubation, 40° C. [1] | % Purity of the Compound, 18 Hours 25° C. [1] | % Purity of the Compound, 18 Hours 40° C. [1] | % Purity of the Compound, Initial [1] | In vitro plasma stability (Ratio of compound/benfluorex (std) degradation) [2] | half-life [2] | AUC(0-t) [3] | blood levels of Compound 1 (metabolite) after dosing the labelled compound [3] | solubility (physchem; [5]) | solubility (physchem; [6]) | solubility (physchem; [7]) | solubility (physchem; [8]) | solubility (physchem; [9]) | solubility (physchem; [10]) | solubility (physchem; [11]) | also measured
1 | CCCCCCCCCCCCCCCCNC(=O)CN(CC(N)=O)C(=O)CCCCCNC(=O)C(Cc1c[nH]c2ccccc12)NC(=O)C(CCCNC(=N)N)NC(=O)C(CSC(C)=O)NC(=O)C(CCCNC(=N)N)NC(=O)CC1CCCN1C(=O)C(NC(=O)C(Cc1c[nH]cn1)NC(=O)C(NC(=O)CNCC(=O)O)C(C)O)C(c1ccccc1)c1ccccc1 (stereo not shown) [Compound 3] | 96.9% | 84.9% | −2.3% | −30% | 95.1% | 67.2% | 97.3% | 1.78 | 1.22 h | 12200 ng·h/mL | comparable to the levels observed when just Compound 1 was dosed |  |  |  |  |  |  |  | degradation after 18 hours at 40° C. [1]: 30%; significant degradation peaks observed by HPLC [1]: multiple major peaks; blood levels relative to those observed in Compound 1 [3]: 5-9 times
2 | CCCCCCCCCCCCCCCCNC(=O)CN(CC(N)=O)C(=O)CCCCCNC(=O)[C@H](Cc1c[nH]c2ccccc12)NC(=O)[C@H](CCCNC(=N)N)NC(=O)[C@H](CSSC)NC(=O)[C@H](CCCNC(=N)N)NC(=O)C[C@@H]1CCCN1C(=O)[C@@H](NC(=O)[C@H](Cc1c[nH]cn1)NC(=O)[C@@H](NC(=O)CN(CC(=O)O)C(=O)CNC(C)=O)[C@@H](C)O)C(c1ccccc1)c1ccccc1 [Compound 9] |  |  |  |  |  |  |  |  |  |  |  | 20 to 35 mg/mL (≈ 10.5 to 18.4 mM) | > 100 mg/mL | 50 to 100 mg/mL (≈ 26.3 to 52.5 mM) | 30 to 50 mg/mL (≈ 15.8 to 26.3 mM) | 30 to 50 mg/mL (≈ 15.8 to 26.3 mM) | 25 to 50 mg/mL (≈ 13.1 to 26.3 mM) | 25 to 35 mg/mL (≈ 13.1 to 18.4 mM) | 
3 | CCCCCCCCCCCCCCCCNC(=O)CN(CC(N)=O)C(=O)CCCCCNC(=O)C(Cc1c[nH]c2ccccc12)NC(=O)C(CCCNC(=N)N)NC(=O)C(CSSC)NC(=O)C(CCCNC(=N)N)NC(=O)CC1CCCN1C(=O)C(NC(=O)C(Cc1c[nH]cn1)NC(=O)C(NC(=O)CNCC(=O)O)C(C)O)C(c1ccccc1)c1ccccc1 (stereo not shown) [Compound 2] | 99.6% | 99.4% | −0.2% | −0.1% | 99.3% | 99.4% | 99.5% | 0.98 | 0.667 h | 1010 ng·h/mL | unexpectedly higher than expected | 25 to 35 mg/mL (≈ 13.9 to 19.4 mM) | > 100 mg/mL | 50 to 100 mg/mL (≈ 27.7 to 55.4 mM) | 60 to 100 mg/mL (≈ 33.3 to 55.4 mM) | 50 to 100 mg/mL (≈ 27.7 to 55.4 mM) | 50 to 100 mg/mL (≈ 27.7 to 55.4 mM) | 25 to 30 mg/mL (≈ 13.9 to 16.6 mM) | degradation after 18 hours at 40° C. (in words) [1]: little degradation observed; significant degradation peaks observed by HPLC [1]: no significant degradation peak; change of solubility with pH (in words) (physchem; pH 4): marked decrease in solubility above pH 4; solubility (physchem; pH 5, Solubility (mg/mL) at Ambient Temperature, 2% Tween 80 pH 5): < 50 mg/mL; solubility (physchem; pH 6.4, Solubility (mg/mL) at Ambient Temperature, 2% Tween pH 6.4): < 10 mg/mL; Solution Appearance after 7 days Storage at 2-8° C., 2% Tween 80 pH 5 ([4]; 2% Tween 80 pH 5): Gel; Solution Appearance after 7 days Storage at 2-8° C., 2% Tween pH 6.4 ([4]; 2% Tween pH 6.4): Gel; Solution Appearance after 7 days Storage at 2-8° C., 10% Tween 80 pH 2.3-2.8 ([4]; 10% Tween 80 pH 2.3-2.8): Gel; Solution Appearance after 7 days Storage at 2-8° C., 10% Tween 80 pH 4.5-5.0 ([4]; 10% Tween 80 pH 4.5-5.0): Gel; Solution Appearance after 7 days Storage at 2-8° C., 30% PEG 400 ([4]; 30% PEG 400): Gel; Solution Appearance after 7 days Storage at 2-8° C., 50% EtOH/water ([4]; 50% EtOH/water): Gel; Solution Appearance after 7 days Storage at 2-8° C., 50% propylene glycol, pH 2.7 ([4]; 50% propylene glycol, pH 2.7): Gel; Solution Appearance after 7 days Storage at 2-8° C., Water ([4]; Water): Gel
4 | CCCCCCCCCCCCCCCCNC(=O)CN(CC(N)=O)C(=O)CCCCCNC(=O)C(Cc1c[nH]c2ccccc12)NC(=O)C(CCCNC(=N)N)NC(=O)C(CSCC)NC(=O)C(CCCNC(=N)N)NC(=O)CC1CCCN1C(=O)C(NC(=O)C(Cc1c[nH]cn1)NC(=O)C(NC(=O)CNCC(=O)O)C(C)O)C(c1ccccc1)c1ccccc1 (stereo not shown) [Compound 4] | 96.8% | 96.6% | −0.5% | 0.3% | 96.2% | 97.0% | 96.7% | 2.74 | 1.87 h | 25600 ng·h/mL | No levels of Compound 1 were detected |  |  |  |  |  |  |  | degradation after 18 hours at 40° C. (in words) [1]: no evidence of degradation involving the cysteine; blood levels of the dosed compound (in words) [3]: very high blood levels; reduction in serum iron (in words) (serum iron): minimal reduction in serum iron after 24 h; also recorded: little activity in vivo
5 | CCCCCCCCCCCCCCCCNC(=O)CN(CC(N)=O)C(=O)CCCCCNC(=O)[C@H](Cc1c[nH]c2ccccc12)NC(=O)[C@H](CCCNC(=N)N)NC(=O)[C@H](CSSC)NC(=O)[C@H](CCCNC(=N)N)NC(=O)C1CCN(C(=O)[C@@H](NC(=O)[C@H](Cc2c[nH]cn2)NC(=O)[C@@H](NC(=O)CNCC(=O)O)[C@@H](C)O)C(c2ccccc2)c2ccccc2)CC1 [Compound 8] |  |  |  |  |  |  |  |  |  |  |  | 25 to 35 mg/mL (≈ 13.9 to 19.4 mM) | > 100 mg/mL | 50 to 100 mg/mL (≈ 27.7 to 55.4 mM) | 40 to 70 mg/mL (≈ 22.2 to 38.8 mM) | 30 to 50 mg/mL (≈ 16.6 to 27.7 mM) | > 50 mg/mL | 50 to 100 mg/mL (≈ 27.7 to 55.4 mM) | 
6 | CCCCCCCCCCCCCCCCNC(=O)CN(CC(N)=O)C(=O)CCCCCNC(=O)[C@H](Cc1c[nH]c2ccccc12)NC(=O)[C@H](CCCNC(=N)N)NC(=O)[C@H](CSSC)NC(=O)[C@H](CCCNC(=N)N)NC(=O)[C@@H]1CCCN(C(=O)[C@@H](NC(=O)[C@H](Cc2c[nH]cn2)NC(=O)[C@@H](NC(=O)CNCC(=O)O)[C@@H](C)O)C(c2ccccc2)c2ccccc2)C1 [Compound 7] |  |  |  |  |  |  |  |  |  |  |  | > 35 mg/mL | > 100 mg/mL | 50 to 100 mg/mL (≈ 27.7 to 55.4 mM) | > 100 mg/mL | > 100 mg/mL | > 50 mg/mL | 50 to 100 mg/mL (≈ 27.7 to 55.4 mM) | 
7 | CCCCCCCCCCCCCCCCNC(=O)CN(CC(N)=O)C(=O)CCCCCNC(=O)[C@H](Cc1c[nH]c2ccccc12)NC(=O)[C@H](CCCNC(=N)N)NC(=O)[C@H](CSSC)NC(=O)[C@H](CCCNC(=N)N)NC(=O)CCNC(=O)[C@@H](NC(=O)[C@H](Cc1c[nH]cn1)NC(=O)[C@@H](NC(=O)CNCC(=O)O)[C@@H](C)O)C(c1ccccc1)c1ccccc1 [Compound 10] |  |  |  |  |  |  |  |  |  |  |  | < 10 mg/mL | < 10 mg/mL | < 25 mg/mL | 15 to 20 mg/mL (≈ 8.5 to 11.3 mM) | < 20 mg/mL | < 10 mg/mL | < 10 mg/mL | solubility characteristics compared to the other compounds (in words) (physchem): does not improve solubility characteristics
